Measured values reported in patent US20040234992A1, “Method of detection of conformational change in a nucleic acid duplex by treatment with oxidising or reactive agent as a result of exposure to environmental or chemical conditions” (priority 2001, published 2004).

Columns and labels:
duplex DNA = conditions: published data; cited from earlier work
calf thymus DNA (Z-DNA) = experiment: Permanganate oxidation of calf thymus Z-DNA (NaCl) incubated with intercalators; conditions: for Level of oxidation (induced by chemical) Net A420 nm: Z-DNA (NaCl), Expt minus Control, 2 min-1 h; for Level of oxidation (induced by chemical) Net A420 nm / ΔA420 nm (2 min-1 h) (Expt): 35° C.; for ΔA420 nm (2 min-1 h) (Expt): calf thymus DNA + NaCl + intercalator 6.3 nmol + KMnO4
Method: The intercalator (10 μl, […]) was incubated with the solution containing calf thymus DNA (5 μl, 8.27 μg) and NaCl (600 μl, 5M NaCl solution) in water (355 μl) at 40° C. for 1 h. The reaction mixture was treated with KMnO4 (30μ of 10 mM solution) and maintained at 35° C. for 60 min. The absorbance at 420 nm was obtained at 2 min and 60 min by Cary 300 spectrophotometer (Varian Inc.). The level of oxidation was based on the absorbance at A420 nm of the experiment and control (without DNA) experiments as described in the experimental section. Four intercalators (with published data on unwinding degree) were used in the experiment: doxorubicin (10°), daunomycin (12°), 9-aminoacridine (17°) and ethidium bromide (28°); and
Due to limited information about the degree of unwinding of intercalators, only four intercalators with different degree of unwinding were employed in the experiment: doxorubicin (10°), daunorubicin (12°), 9-aminoacridine (17°) and ethidium bromide (28°). The Z-DNA samples were mixed in equal amounts of intercalators and the reactions were carried out under identical conditions. Calf thymus DNA (5 μl, 8.27 μg) was incubated with NaCl (600 μl, SM NaCl solution), the DNA binding agent or intercalator (10 μl, 6.3 nmol) in distilled H2O (355 μl). 4 non-sequence specific intercalators were used in the model study: doxorubicin, daunorubicin, 9-aminoacridine and ethidium bromide. The reaction mixture was gently mixed on shaker at 40° C. for 1 h. After incubation time, KMnO4 (30 μl) was added to the reaction mixture and the resulting mixture was transferred to the quartz cuvette and the absorbance (420 nm) was obtained at 35° C. for 2- and 60-min time-points. The level of oxidation induced by intercalator is based on the net absorbance and calculated as follows:
Net A420 nm=[A420 nm of the Expt (60 min)−A420 nm of the Expt (2 min)]−[A420 nm of the Control (60 min)−A420 nm of the Control (2 min)]
Where Net A420 nm represents the level of oxidation of the DNA-chemical adduct.
The Expt=calf thymus DNA+NaCl+DNA binding agent+KMnO4
The Control=DNA binding agent+KMnO4.
The control experiment (without DNA binding agent) was treated under identical conditions as described above.

## Nc1c2ccccc2nc2ccccc12 [9-aminoacridine]
Duplex DNA
  degree of unwinding: 17 °
Calf thymus DNA (Z-DNA)
  Level of oxidation (induced by chemical) Net A420 nm: 0.0726 arbitrary unit
  ΔA420 nm (2 min-1 h) (Expt): 0.1327

## COc1cccc2c1C(=O)c1c(O)c3c(c(O)c1C2=O)C[C@@](O)(C(C)=O)C[C@@H]3O[C@H]1C[C@H](N)[C@H](O)[C@H](C)O1 [daunorubicin]
Duplex DNA
  degree of unwinding: 12 °
Calf thymus DNA (Z-DNA)
  Level of oxidation (induced by chemical) Net A420 nm: 0.0957 arbitrary unit
  ΔA420 nm (2 min-1 h) (Expt): 0.1670

## COc1cccc2c1C(=O)c1c(O)c3c(c(O)c1C2=O)C[C@@](O)(C(=O)CO)C[C@@H]3O[C@H]1C[C@H](N)[C@H](O)[C@H](C)O1 [doxorubicin]
Duplex DNA
  degree of unwinding: 10 °
Calf thymus DNA (Z-DNA)
  Level of oxidation (induced by chemical) Net A420 nm: 0.1029 arbitrary unit
  ΔA420 nm (2 min-1 h) (Expt): 0.1427
Calf thymus DNA (Z-DNA); Z-DNA incubated with intercalator, ranking among the four intercalators
  rate of permanganate oxidation (kinetic data): fastest
